Measurements as given in ChEMBL document CHEMBL1697723, “A predictive ligand-based Bayesian model for human drug-induced liver injury” (Drug Metab Dispos, 2010).

Test system: Hepatotoxicity
Test: Human drug-induced liver injury (DILI) modelling dataset from Ekins et al

Cc1nnc(NS(=O)(=O)c2ccc(N)cc2)s1 [SULFAMETHIZOLE]
Hepatotoxicity: DILI positive (test set)

Nc1ccc(S(N)(=O)=O)cc1 [SULFANILAMIDE]
Hepatotoxicity (Liver): DILI positive (test set)

O=C(O)c1cc(/N=N/c2ccc(S(=O)(=O)Nc3ccccn3)cc2)ccc1O [SULFASALAZINE]
Hepatotoxicity: DILI positive (training set)

O=C1C(CC[S+]([O-])c2ccccc2)C(=O)N(c2ccccc2)N1c1ccccc1 (stereo unspecified) [SULFINPYRAZONE]
Hepatotoxicity: DILI positive (test set)

O=C1OC(c2ccc(O)c(S(=O)(=O)O)c2)(c2ccc(O)c(S(=O)(=O)O)c2)c2c(Br)c(Br)c(Br)c(Br)c21 [SULFOBROMOPHTHALEIN]
Hepatotoxicity: DILI positive (test set)

Nc1c2c(nc3ccccc13)CCCC2 [TACRINE]
Hepatotoxicity (Liver): DILI negative (training set)

Cc1nc(C)c2c(n1)N(Cc1ccc(-c3ccccc3-c3nnn[nH]3)cc1)C(=O)CC2 [TASOSARTAN]
Hepatotoxicity: DILI positive (test set)

Cc1scc2c1N(C(=O)CN1CCN(C)CC1)c1ccccc1NC2=O [TELENZEPINE]
Hepatotoxicity: DILI negative (test set)

CC[C@H]1OC(=O)[C@H](C)C(=O)[C@H](C)[C@@H](O[C@@H]2O[C@H](C)C[C@H](N(C)C)[C@H]2O)[C@](C)(OC)C[C@@H](C)C(=O)[C@H](C)[C@H]2N(CCCCn3cnc(-c4cccnc4)c3)C(=O)O[C@]12C [TELITHROMYCIN]
Hepatotoxicity (Liver): DILI positive (test set)

CC1CN(c2cc3c(cc2F)c(=O)c(C(=O)O)cn3-c2ccc(F)cc2F)CCN1 (stereo unspecified) [TEMAFLOXACIN]
Hepatotoxicity: DILI positive (test set)

Cn1nnc2c(C(N)=O)ncn2c1=O [TEMOZOLOMIDE]
Hepatotoxicity: DILI negative (training set)

CC(C)(C)c1ccc(C(O)CCCN2CCC(C(O)(c3ccccc3)c3ccccc3)CC2)cc1 (stereo unspecified) [TERFENADINE]
Hepatotoxicity: DILI negative (training set)

CCCCNc1ccc(C(=O)OCCN(C)C)cc1.Cl [TETRACAINE HYDROCHLORIDE]
Hepatotoxicity: DILI negative (training set)

CN(C)[C@@H]1C(O)=C(C(N)=O)C(=O)[C@@]2(O)C(O)=C3C(=O)c4c(O)cccc4[C@@](C)(O)[C@H]3C[C@@H]12 [TETRACYCLINE]
Hepatotoxicity: DILI positive (training set)

Cn1c(=O)c2[nH]cnc2n(C)c1=O.O [THEOPHYLLINE]
Hepatotoxicity: DILI negative (test set)

Cc1ncc(C[n+]2csc(CCO)c2C)c(N)n1 [THIAMINE ION]
Hepatotoxicity (Liver): DILI negative (test set)

CC(=N)S [THIOACETAMIDE]
Hepatotoxicity: DILI positive (training set)

CN1c2ccccc2C(NCCCCCCC(=O)O)c2ccc(Cl)cc2S1(=O)=O (stereo unspecified) [TIANEPTINE]
Hepatotoxicity: DILI positive (training set)

Clc1ccccc1CN1CCc2sccc2C1 [TICLOPIDINE]
Hepatotoxicity (Liver): DILI positive (training set)

CC(C)(C)NC[C@H](O)COc1nsnc1N1CCOCC1.O=C(O)/C=C\C(=O)O [TIMOLOL MALEATE]
Hepatotoxicity: DILI positive (training set)

NC[C@H]1O[C@H](O[C@H]2[C@H](O)[C@@H](O[C@H]3O[C@H](CO)[C@@H](O)[C@H](N)[C@H]3O)[C@H](N)C[C@@H]2N)[C@H](N)C[C@@H]1O [TOBRAMYCIN]
Hepatotoxicity: DILI positive (test set)

Cc1ccc(S(=O)(=O)NC(=O)NN2CCCCCC2)cc1 [TOLAZAMIDE]
Hepatotoxicity: DILI positive (test set)

Cc1ccc(C(=O)c2cc(O)c(O)c([N+](=O)[O-])c2)cc1 [TOLCAPONE]
Hepatotoxicity (Liver): DILI positive (test set)

Cc1ccc(C(=O)c2ccc(CC(=O)O)n2C)cc1 [TOLMETIN]
Hepatotoxicity: DILI positive (training set)

COc1ccc2c(C(=S)N(C)CC(=O)O)cccc2c1C(F)(F)F [TOLRESTAT]
Hepatotoxicity: DILI positive (test set)

CC1(C)O[C@@H]2[C@@H](CO[C@@]3(COS(N)(=O)=O)OC(C)(C)O[C@@H]23)O1 [TOPIRAMATE]
Hepatotoxicity: DILI negative (test set)

Cl.N[C@@H]1C[C@H]1c1ccccc1 [TRANYLCYPROMINE HYDROCHLORIDE]
Hepatotoxicity (Liver): DILI negative (training set)

Cl.O=c1n(CCCN2CCN(c3cccc(Cl)c3)CC2)nc2ccccn12 [TRAZODONE HYDROCHLORIDE]
Hepatotoxicity: DILI positive (training set)

CC1=C(/C=C/C(C)=C/C=C/C(C)=C/C(=O)O)C(C)(C)CCC1 [TRETINOIN]
Hepatotoxicity: DILI positive (training set)

ClC=C(Cl)Cl [TRICHLOROETHYLENE]
Hepatotoxicity: DILI positive (test set)

CN1CCN(CCCN2c3ccccc3Sc3ccc(C(F)(F)F)cc32)CC1 [TRIFLUOPERAZINE]
Hepatotoxicity: DILI positive (training set)

CN1C(=O)OC(C)(C)C1=O [TRIMETHADIONE]
Hepatotoxicity: DILI positive (training set)

COc1cc(C(=O)NCc2ccc(OCCN(C)C)cc2)cc(OC)c1OC.Cl [TRIMETHOBENZAMIDE HYDROCHLORIDE]
Hepatotoxicity: DILI positive (test set)

COc1cc(Cc2cnc(N)nc2N)cc(OC)c1OC [TRIMETHOPRIM]
Hepatotoxicity (Liver): DILI positive (test set)

CN(C)CCN(Cc1ccccc1)c1ccccn1.Cl [TRIPELENNAMINE HYDROCHLORIDE]
Hepatotoxicity: DILI positive (test set)

Cc1c(C)c2c(c(C)c1O)CCC(C)(COc1ccc(CC3SC(=O)NC3=O)cc1)O2 (stereo unspecified) [TROGLITAZONE]
Hepatotoxicity: DILI positive (test set)

CO[C@H]1C[C@H](O[C@H]2[C@H](C)[C@@H](O[C@@H]3O[C@H](C)C[C@H](N(C)C)[C@H]3OC(C)=O)[C@@H](C)C[C@@]3(CO3)C(=O)[C@H](C)[C@@H](OC(C)=O)[C@@H](C)[C@@H](C)OC(=O)[C@@H]2C)O[C@@H](C)[C@@H]1OC(C)=O [TROLEANDOMYCIN]
Hepatotoxicity: DILI positive (test set)

NC(CO)(CO)CO [TROMETHAMINE]
Hepatotoxicity (Liver): DILI negative (test set)

N[C@@H]1[C@H]2CN(c3nc4c(cc3F)c(=O)c(C(=O)O)cn4-c3ccc(F)cc3F)C[C@@H]12 [TROVAFLOXACIN]
Hepatotoxicity: DILI positive (training set)

Oc1ncc(N(CCCl)CCCl)c(O)n1 [URACIL MUSTARD]
Hepatotoxicity (Liver): DILI positive (test set)

C[C@H](CCC(=O)O)[C@H]1CC[C@H]2[C@@H]3[C@@H](O)C[C@@H]4C[C@H](O)CC[C@]4(C)[C@H]3CC[C@]12C [URSODIOL]
Hepatotoxicity: DILI negative (training set)

CCCCC(=O)O [VALERIC ACID]
Hepatotoxicity: DILI negative (test set)

CN[C@H](CC(C)C)C(=O)N[C@H]1C(=O)N[C@@H](CC(N)=O)C(=O)N[C@H]2C(=O)N[C@H]3C(=O)N[C@H](C(=O)N[C@H](C(=O)O)c4cc(O)cc(O)c4-c4cc3ccc4O)[C@H](O)c3ccc(c(Cl)c3)Oc3cc2cc(c3O[C@@H]2O[C@H](CO)[C@@H](O)[C@H](O)[C@H]2O[C@H]2C[C@](C)(N)[C@H](O)[C@H](C)O2)Oc2ccc(cc2Cl)[C@H]1O [VANCOMYCIN]
Hepatotoxicity: DILI positive (training set)

Nc1ncnc2c1ncn2[C@@H]1O[C@H](CO)[C@@H](O)[C@@H]1O [VIDARABINE]
Hepatotoxicity: DILI negative (training set)

CC[C@]1(O)C[C@@H]2CN(CCc3c([nH]c4ccccc34)[C@@](C(=O)OC)(c3cc4c(cc3OC)N(C)[C@H]3[C@@](O)(C(=O)OC)[C@H](OC(C)=O)[C@]5(CC)C=CCN6CC[C@]43[C@@H]65)C2)C1.O=S(=O)(O)O [VINBLASTINE SULFATE]
Hepatotoxicity: DILI negative (test set)

CC[C@]1(O)C[C@H]2CN(CCc3c([nH]c4ccccc34)[C@@](C(=O)OC)(c3cc4c(cc3OC)N(C=O)[C@H]3[C@@](O)(C(=O)OC)[C@H](OC(C)=O)[C@]5(CC)C=CCN6CC[C@]43[C@@H]65)C2)C1.O=S(=O)(O)O [VINCRISTINE SULFATE]
Hepatotoxicity: DILI positive (test set)

CCCCCCCCCCCCCCCC(=O)OC/C=C(C)/C=C/C=C(C)/C=C/C1=C(C)CCCC1(C)C [VITAMIN A PALMITATE]
Hepatotoxicity: DILI positive (test set)

CC(=O)CC(c1ccccc1)c1c(O)c2ccccc2oc1=O (stereo unspecified) [WARFARIN]
Hepatotoxicity: DILI negative (training set)

CCOC(=O)CN[C@@H](C(=O)N1CC[C@H]1C(=O)NCc1ccc(/C(N)=N\O)cc1)C1CCCCC1 [XIMELAGATRAN]
Hepatotoxicity: DILI positive (test set)

COc1cc(C(=O)NS(=O)(=O)c2ccccc2C)ccc1Cc1cn(C)c2ccc(NC(=O)OC3CCCC3)cc12 [ZAFIRLUKAST]
Hepatotoxicity: DILI positive (training set)

Nc1ccn([C@H]2CC[C@@H](CO)O2)c(=O)n1 [ZALCITABINE]
Hepatotoxicity (Liver): DILI negative (training set)

Cc1cn([C@H]2C[C@H](N=[N+]=[N-])[C@@H](CO)O2)c(=O)[nH]c1=O [ZIDOVUDINE]
Hepatotoxicity: DILI positive (training set)

CC(c1cc2ccccc2s1)N(O)C(N)=O (stereo unspecified) [ZILEUTON]
Hepatotoxicity: DILI positive (training set)

Cc1ccc(-c2nc3ccc(C)cn3c2CC(=O)N(C)C)cc1 [ZOLPIDEM]
Hepatotoxicity: DILI negative (test set)

Cc1cc(CC(=O)O)n(C)c1C(=O)c1ccc(Cl)cc1 [ZOMEPIRAC]
Hepatotoxicity: DILI negative (training set)

AURANOFIN
Hepatotoxicity: DILI positive (test set)

AUROTHIOGLUCOSE
Hepatotoxicity: DILI positive (test set)

AUROTHIOLAMATE
Hepatotoxicity: DILI positive (test set)

BISMUTH SUBSALICYLATE
Hepatotoxicity: DILI negative (test set)

CADMIUM DICHLORIDE
Hepatotoxicity: DILI positive (training set)

CARBOPLATIN
Hepatotoxicity: DILI positive (test set)

CISPLATIN
Hepatotoxicity: DILI positive (test set)

CYANOCOBALAMIN
Hepatotoxicity: DILI negative (training set)

GALLIUM NITRATE HYDRATE
Hepatotoxicity: DILI negative (training set)

LACTOSE, ANHYDROUS
Hepatotoxicity: DILI negative (test set)

POTASSIUM DICHROMATE
Hepatotoxicity: DILI positive (training set)
